Series [1] deals with Y79 cells. Put plainly: Apoptosis assay, immunofluorescence detection of activated Caspase-3. The format is cell-based, human. The following applies: 0.5 μM, 72 h, 1% DMSO. The procedure:
Apoptosis assay. Y79 cells seeded in culture medium in a 24-well plate were treated with either vincristine, etoposide, or ouabain at various concentrations in 1% DMSO (v/v) or with 1% DMSO (v/v) alone as a carrier control for 48 h or 72 h. After a wash in PBS, cells were fixed in solution in […] in PBS for 10 minutes. After a wash in PBS, cells for each condition were dried on a glass slide and washed once with water.
The immunofluorescence detection of cleaved Caspase-3 was performed at the Memorial Sloan-Kettering Cancer Center Molecular Cytology Core Facility using a Discovery XT processor (Ventana Medical Systems, Tucson, Ariz.). A rabbit polyclonal Cleaved Caspase 3 (Asp 175) antibody (#9661 L, Cell Signaling, Danvers, Mass.) was used at a concentration of 0.1 μg/ml. […] Automated fluorescence imaging of the green channel (activated Caspase-3) and blue channel (nuclei) was performed using an IN Cell Analyzer 1000 (GE Healthcare).
Compared effect of ouabain and clinical agents on apoptosis of Y79 cells. […] The drug concentrations used in this experiment were previously determined according to a pilot study where treated Y79 cells were live-stained with the dye Yo-Pro, which stains apoptic cells (Idziorek et al., J. Immunol. Methods 1995, 185, 249-258). […] Baseline Caspase-3 activation was evaluated with control Y79 cells treated with 1% DMSO (v/v) (FIG. 6A).

For series [2], the system named is Y79 cells. Put plainly: Pilot study, live staining of treated cells with the dye Yo-Pro. The format is cell-based, human. Particulars: concentrations higher than 0.5 μM. As to the method:
Compared effect of ouabain and clinical agents on apoptosis of Y79 cells. To determine whether the anti-proliferative effects of the drug ouabain was mediated by induction of apoptosis, immunostaining of activated Caspase-3 in Y79 cells treated with cardenolides or known agents for retinoblastoma for 72 h (green channel) was performed; treated cells were also stained with Hoechst to image the nuclei (blue channel) (FIG. 6). The drug concentrations used in this experiment were previously determined according to a pilot study where treated Y79 cells were live-stained with the dye Yo-Pro, which stains apoptic cells (Idziorek et al., J. Immunol. Methods 1995, 185, 249-258). Based on this study, 72 h was identified as the optimum incubation time and drug concentrations were selected that maximized the number of apoptotic cells (data not shown). Baseline Caspase-3 activation was evaluated with control Y79 cells treated with 1% DMSO (v/v) (FIG. 6A).

Series [3] is described as follows: Body weight and signs of toxicity in the xenograft study. The following applies: throughout the treatment period. It is filed as in vivo, mouse. The procedure: In vivo studies. Subcutaneous xenograft experiments were performed at the Memorial Sloan-Kettering Cancer Center Antitumor Assessment Core Facility. Y79LUC cells (10E6) embedded in matrigel (BD Biosciences, San Jose, Calif.) were injected subcutaneously in the right flank of 8-weeks old ICR/SCID male mice. Treatment started when the tumors reached approximately 250 mm^3. The mice were randomized into three groups and two mice per group were treated with either 10% DMSO (v/v) (control group), 1.5 mg/kg ouabain or 15 mg/kg ouabain. Treatment was performed by continuous subcutaneous infusion using osmotic minipumps (#1007D, Alzet, Cupertino, Calif.). Tumor size was measured externally two times a week with a caliper. Body weight of each mouse was monitored as well as other signs of toxicity throughout the treatment period. Bioluminescent imaging of the tumors was performed once a week and prior to sacrifice as follows: mice were anesthetized by isofluorane inhalation and injected with D-luciferin at 50 mg/Kg (Xenogen) intraperitoneally; photonic emission was measured with the In Vivo Imaging System (IVIS 200, Xenogen) with a collection time of 5 seconds.
Assessment of the in vivo efficacy of ouabain in a xenograft model of retinoblastoma. The therapeutic effect of the drug ouabain in a mouse xenograft model of retinoblastoma was also investigated. […]

The next series deals with RB355 cells. Put plainly: Cytotoxicity assay for dose response in 384-well plates (Alamar Blue), RB355. The format is cell-based, human. The procedure:
(§1) Cytotoxicity assay for dose response in 384-well microtiter plates. Dose response studies were performed in 384-well microtiter plates (#3712, Corning Inc., Corning, N.Y.) according to the following protocol: cells were added in 45 μL medium to the screening plates using Flexdrop. After 72 h incubation was added 5 μL Alamar Blue using Flexdrop. The cells were then incubated for another 24 h, and the fluorescence intensity was read on LEADseeker™ Multimodality Imaging System as previously described. To calculate the IC50 for each compound toward each cell line, the dose response was assessed in duplicate and using 12 point doubling dilutions with 100 μM compound concentration as the upper limit. The dose response curve for each set of data was fitted separately, and the two IC50 values obtained were averaged.
To explore the structure activity relationship (SAR) within this chemical class a collection of 35 cardenolides and derivatives was constituted. The dose response for each compound toward the ocular cancer cell lines Y79, RB355, WERI-Rb-1 and C918 was then assessed.
Compared potency of the cardenolide ouabain with known agents in cell models of retinoblastoma. The potency of a representative of the cardenolide scaffold was compared to known effective agents against retinoblastoma. […]
Background: Resazurin is reduced to fluorescent resorufin, in cell work by metabolically active cells.

Series [4] concerns Y79 cells. Put plainly: Cytotoxicity assay for dose response in 384-well plates (Alamar Blue), Y79. It is filed as cell-based, human. As to the method:
as §1
Compared potency of the cardenolide ouabain with known agents in cell models of retinoblastoma. The potency of a representative of the cardenolide scaffold was compared to known effective agents against retinoblastoma. Namely, the dose response of the drug ouabain was tested with the human retinoblastoma cell lines Y79 and RB355, and its potency was compared to vincristine, etoposide, carboplatin, cisplatin, nutlin-3 and calcitriol. […] The activity of vincristine toward Y79 cells reached a plateau at 50% inhibition, which prevented the IC50 for this compound from being calculated.

Each structure is given as a SMILES string. Entries after “also recorded” stand apart in the source; their conditions may differ.

Turning to `C[C@@H]1O[C@@H](O[C@H]2C[C@@H](O)[C@]3(CO)[C@H]4[C@H](O)C[C@]5(C)[C@@H](C6=CC(=O)OC6)CC[C@]5(O)[C@@H]4CC[C@]3(O)C2)[C@H](O)[C@H](O)[C@H]1O` [ouabain], the “apoptosis (activated Caspase-3) compared to baseline” value in the series on Y79 cells [1] is on record as “still induced significant apoptosis”. In addition, in the series on Y79 cells [2], the “effect on Y79 cells in the Yo-Pro pilot study” value is on record as “erradicated Y79 cells”. Further, in series [3] (15 mg/kg), the toxicity entry is reported as “did not induce any significant toxicity; also recorded: no signs of toxicity were observed”. Further, the “average body weight of treated versus control animals” value in series [3] (1.5 and 15 mg/kg) is “did not differ significantly”.
Turning to `N.N.O=C([O-])C1(C(=O)[O-])CCC1.[Pt+2]` [Carboplatin, carboplatin], the “activity toward RB355 cells below 100 μM” value in the series with RB355 cells was “neither caboplatin or calcitriol had any significant activity”. In addition, the “activity toward Y79 cells below 100 μM” value in the series on Y79 cells [4] was “did not demonstrate any significant activity”.
The like results for `C=C1/C(=C\C=C2/CCC[C@]3(C)[C@@H]([C@H](C)CCCC(C)(C)O)CC[C@@H]23)C[C@@H](O)C[C@@H]1O` [calcitriol] were, in that order, “neither caboplatin or calcitriol had any significant activity” and “did not demonstrate any significant activity”.
On to `N.N.[Cl][Pt][Cl]` [cisplatin], for which the “activity toward Y79 cells below 100 μM” value in the series with Y79 cells [4] was “did not demonstrate any significant activity”.
